Several values for one entry are separate records, joined by “and”; a condition that tells them apart may be missing. Equal entries are not always repeated.
Experiments:
[1] = system: P. falciparum NF54 hsp86-PpyRE13 asexual stages; test: P. falciparum asexual stage assay (pLDH); assay type: cell-based, Plasmodium falciparum; details: asexual stages, line NF54 Hsp86 PpYRE13; read-out: NF54 Hsp86 PpYRE13 (IC50 nM)
Experimental: (§1) With the selected 84 compounds, the subsequent step aimed at determining the gametocyte inhibition potency and the parasite stage selectivity between the gametocytes and the asexual stages in the NF54 hsp86-PpyRE13. […] Similar data were obtained considering the gametocyte IC50 values measured in the NF54 pfs16-GFP-PyLUC strain (see Supplementary Data 2).
Parasite proliferation assays were performed in 384-well plates (Thermo, 4332, USA) with a starting parasitemia of 0.25% at a haematocrit of 2% by quantification of parasite lactate dehydrogenase (pLDH). Compounds or DMSO as control were pre dispensed on plates, from 10 mM DMSO stock solutions, via an acoustic droplet ejection device (ATS-100, EDC Biosystems) to achieve de final desired concentration. Assay plates were incubated for 72 h at 37 °C in 4% CO2, 3% O2, and 93% N2 modified atmosphere. After the incubation period, plates are frozen at −80 °C for two h and then thawed at room temperature for 2 h. Then, 50 µL of the developer solution (70 mM Tris-HCl pH 8.0, 0.5% Tween-20, 100 mM Lithium L-Lactate, 125 µM nitro blue tetrazolium, 2 U/ml diaphorase and 100 µM 3-Acetylpyridine Adenine Dinucleotide) are added to each well and let to react for 10 min. Absorbance was then read at 650 nm by a suitable spectrophotometer.

[2] = system: P. falciparum NF54 male gametocytes (stage V); test: Male gamete exflagellation assay; assay type: cell-based, Plasmodium falciparum; details: for Inhibition of male exflagellation at 1 µM: 48 h
Experimental: The above selected 30 compounds were subjected to a phenotypic male gamete exflagellation assay. This assay measures the viability of male gametocytes by quantitating the final step of maturation into motile microgametes in vitro[24]. This process naturally occurs in the mosquito gut within minutes from the blood meal. The acquisition of time lapse videos of gamete motility in bright field microscopy and the subsequent analysis to count exflagellation centres were performed in an automated HTS format in 384-well plates. The compounds were tested in two independent biological replicates at the concentration of 1 µM. […] The results of this study led to the identification of 16 compounds with anti-exflagellation activity (Fig. 4). […] The standard membrane feeding assay (SMFA) is used to measure the parasite transmission through mosquito. In this assay, mature stage V gametocytes of the P. falciparum strain NF54-hsp70-luc were treated with 1 and 10 µM of the nine selected compounds for 24 h, added with human red blood cells and serum to achieve a haematocrit of 50% and then fed to mosquitoes. Luminescence was analyzed in […] 8 days post-feeding.
Asexual parasites of the NF54 line, kindly obtained from Elena Levashina’s laboratory (Max Plank Institute for Infection Biology, Berlin, Germany), were seeded at 1% total parasitemia and grown for 16 days changing medium every day until development of stage V gametocytes (about 1–2% of stage V gametocytemia). 100 µl of gametocyte culture was seeded in each well of a 96 well-plate and 100 µl of 2× concentration of compounds or DMSO as control were added to each well to achieve the desired final concentration. Assay plates were incubated for 48 h at 37 °C in 4% CO2, 3% O2, and 93% N2 modified atmosphere. After the incubation period, 100 µl of medium were removed from each well and the other 100 µl were transferred to a black imaging 96 well plate (ibidi) containing 100 µl of complete medium supplemented with 40 µM of xanthurenic acid. After 15 min, exflagellation events were captured by three ten-second videos each well with an Olympus IX83 inverted microscope with a UPLSAPO 10× N.A. 0.75 objective (Olympus, Japan), equipped with a Hamamatsu ORCA-Flash 4.0 V3 camera. Each video was analyzed using the Icy bio-image analysis software (http://icy.bioimageanalysis.org/) to count the number of exflagellation events.

[3] = system: P. falciparum NF54 pfs16-GFP-PyLUC gametocytes; test: P. falciparum gametocyte luminescence assay (PfLuc), line NF54 pfs16-GFP-PyLUC; assay type: cell-based, Plasmodium falciparum; details: gametocytes, line NF54 pfs16; read-out: Pf Gametocytes NF54 pfs16 (IC50 nM)
Experimental: (§2) To exclude false positive compounds that may interfere with the click beetle CBG99 luciferase signal and to confirm the activity on gametocytes produced by other P. falciparum lines, we tested the above 638 compounds at a single concentration of 10 µM on gametocytes from two NF54 strain derived lines: pfs16-GFP-PyLUC (Photinus pyralis luciferase under the same pfs16 promoter)[14],[16],[27] and hsp86-PpyRE13 that was generated for this work to express the mutated Photinus pyralis PpyRE13 luciferase in gametocytes under the promoter of the pfhsp86 gene.
as §1
(§3) Parasite gametocyte luminescence assays were performed in 384-well plates (Thermo, 4332, USA) by infected red blood cells seeded at 40 µL/well at a haematocrit of 0.625% for the strain 3D7elo1-pfs16-CBG99, 1.875% for both strains NF54 hsp86-PpyRE13 and NF54 pfs16-GFP-PyLUC. Assay were performed in the medium: 10.44 g/L RPMI 1640 Medium (Gibco, 51800043), 5.95 g/L HEPES (Sigma, H4034), 50 mg/L Hypoxantine (Sigma, 56700), 10% heat inactivated human serum, 10 ml of Neomycin solution (Sigma, N1142) and 2.1 g/L NaHCO3 (Sigma, 144-55-8). Compounds or DMSO as control were pre dispensed on plates, from 10 mM DMSO stock solutions, via an acoustic droplet ejection device (ATS-100, EDC Biosystems) to achieve the final desired concentration. Assay plates were incubated for 48 h at 37 °C in 4% CO2, 3% O2, and 93% N2 modified atmosphere. After incubation, 20 µL/well of a solution of luciferin (Regis, 1-360242-200) potassium/sodium salt (300 µg/ml) are added to the assay plates and read at suitable luminescence detection after 1 min incubation at room temperature. The whole HTS was performed in 7 rounds of 30–80 plates each in two months’ time.

HeLa cells = test: HeLa cell proliferation assay (CellTiter Glo); assay type: cell-based, human
Experimental: In addition, we tested the 84 compounds in a dose-response fashion on HeLa cells to quantitatively monitor their cytotoxicity potential.
HeLa cells (CCL-2, ATCC, USA) were cultured in DMEM without phenol red (Thermo, 11880, USA) + 10% FBS + 1X PenStrep + 1X Gln. They were plated in a 384-well plate (Thermo, 4334-11, USA) to a density of 2000 cells per well and let recover for 4 h at 37 °C, 5% CO2 in a humidified atmosphere. After the recovery, compounds were transferred to assay plates as per compound preparation method. Assay plates were then incubated at 37 °C, 5% CO2 in a humidified atmosphere for 72 h. Cell viability was measured by the CellTiTer Glo (Promega, G8080, USA) as per manufacturer instruction.

[4] = system: P. falciparum NF54 hsp86-PpyRE13 gametocytes; test: P. falciparum gametocyte luminescence assay (PfLuc), line NF54 hsp86-PpyRE13; assay type: cell-based, Plasmodium falciparum; details: gametocytes, line NF54 HSP86; read-out: Pf Gametocytes NF54 HSP86 (IC50 nM)
Experimental: as §2, §1, §3

[5] = system: P. falciparum strain NF54-hsp70-luc stage V gametocytes fed to Anopheles stephensi mosquitoes; test: whole plant or invertebrate; assay type: in vivo, Plasmodium falciparum; details: for luminescence signal of individual mosquitoes (SMFA, Fig. 5): one value per mosquito; for transmission blocking in SMFA: 24 h treatment
Experimental: The above selected 30 compounds were subjected to a phenotypic male gamete exflagellation assay. This assay measures the viability of male gametocytes by quantitating the final step of maturation into motile microgametes in vitro[24]. This process naturally occurs in the mosquito gut within minutes from the blood meal. The acquisition of time lapse videos of gamete motility in bright field microscopy and the subsequent analysis to count exflagellation centres were performed in an automated HTS format in 384-well plates. The compounds were tested in two independent biological replicates at the concentration of 1 µM. […] The standard membrane feeding assay (SMFA) is used to measure the parasite transmission through mosquito. In this assay, mature stage V gametocytes of the P. falciparum strain NF54-hsp70-luc were treated with 1 and 10 µM of the nine selected compounds for 24 h, added with human red blood cells and serum to achieve a haematocrit of 50% and then fed to mosquitoes. Luminescence was analyzed in the mosquito salivary glands 8 days post-feeding.
SMFA was performed commercially by TropiQ Health Sciences (Nijmegen, The Netherlands). Test samples were diluted in DMSO and then in RPMI medium (Gibco, 51800043) to achieve a final DMSO concentration of 0.1%. Diluted samples were combined with stage V gametocytes from P. falciparum strain NF54-hsp70-luc and incubated for 24 h. Subsequently, human red blood cells and human serum with the sample were added to achieve a haematocrit of 50%. The blood meal was fed to two-day old Anopheles stephensi mosquitoes that were starved the night prior to the blood meal. […] Mosquito infection was analyzed 8 days post-feeding by luminescence measurements of whole mosquitoes as described previously. For each feeder, luminescence intensity was analyzed in 15–24 mosquitoes per feeder (N = 1, n = 15–24). Luminescence background levels were determined from 15–24 uninfected mosquitoes. Controls: vehicle (0.1% DMSO) in duplicate.

[6] = system: P. falciparum NF54 male gametocytes (stage V); test: Male gamete exflagellation assay; assay type: cell-based, Plasmodium falciparum; details: 48 h
[7] = system: P. falciparum 3D7elo1-pfs16-CBG99 gametocytes; test: P. falciparum gametocyte luminescence assay (PfLuc), primary HTS line 3D7elo1-pfs16-CBG99; assay type: cell-based, Plasmodium falciparum; details: 10 µM MB, Rep1-Rep2
Text: In this line, the CBG99 luciferase-coding region (from the click beetle Pyrophorus plagiophthalamus) is integrated into the parasite genome and expressed under the control of the pfs16 gametocyte-specific promoter.
Obtaining an accurate gametocyte synchronization with minimal parasite handling is of paramount importance to establish a robust and reliable HTS assay. To this aim, the timing of addition of N-acetyl glucosamine (NAG), used to clear residual asexual stages after appearance of stage I gametocytes, was optimized. […] Using these cultures, different haematocrit percentages (0.625, 1.25 and 2.5%) and two incubation times (48- and 72 h) were tested to identify the optimal luciferase readout.
A collection of 119.059 compounds of the CNCCS library was tested on gametocytes of the 3D7elo1-pfs16-CBG99 strain at 10 µM using the protocol described above. […]
as §3

`O=S(=O)(NCC1(O)CCOc2ccccc21)c1ccc(Br)s1` (stereo not drawn) [Compound 84, reference compound] was tested, and the IC50 [1] was > 51200 nM, the “Inhibition of male exflagellation at 1 µM” value (shortened to “Inhibition”) ([2]; Replicate 1) was 1.9 and the “Inhibition” value ([2]; Replicate 2) was 0. For the same molecule, the “Exflagellation @ 1 uM (% of DMSO) 1” value ([2]; 1 uM, replicate 1) was 1.90 % of DMSO, the “Exflagellation @ 1 uM (% of DMSO) 2” value ([2]; 1 uM, replicate 2) was 0.00 % of DMSO and the IC50 [3] was 11300 nM. The IC50 (HeLa cells) was > 32000 nM and the IC50 [4] was 29600 nM.

In the case of `CS(=O)(=O)c1ccc(-c2cnc(N)c(-c3ccc(C(F)(F)F)nc3)c2)cc1` [MMV-048], the “luminescence signal of individual mosquitoes (SMFA, Fig. 5)” value ([5]; compound at 1 µM) is reported as 6 and 9 and 5 and 28 and 32 and 4 and 3 and 8 and 58 and 2 and 20 and 83 and the “luminescence signal of individual mosquitoes (SMFA, Fig. 5)” value ([5]; compound at 10 µM) is reported as 6 and 8 and 5 and 3 and 7.

With `CS(=O)(=O)c1ccc(-c2cnc(N)c(-c3ccc(C(F)(F)F)nc3)c2)cc1` [MMV0048, reference compound] the “transmission blocking in SMFA” value ([5]; 1 µM) was “abolished the parasite transmission” and the “transmission blocking in SMFA” value ([5]; 10 µM) was “abolished the parasite transmission”.

With `CN(C)c1ccc2nc3ccc(=[N+](C)C)cc-3sc2c1` [MB, methylene blue] the “Inhibition” value ([2]; Replicate 1) was 2.985, the “Inhibition” value ([2]; Replicate 2) was 1.163 and the “Inhibition” value ([6]; Replicate 3) was 5.8. The “Inhibition” value ([6]; Replicate 4) was 7.7, the Luminescence counts ([7]; 48 h, hematocrit 0.625%) was 88 RLU and 72 RLU and the Luminescence counts ([7]; 48 h, hematocrit 2.5%) was 208 RLU and 224 RLU. The Luminescence counts ([7]; 72 h, hematocrit 0.625%) was 64 RLU and 56 RLU, the Luminescence counts ([7]; 72 h, hematocrit 1.25%) was 48 RLU and 56 RLU and the Luminescence counts ([7]; 72 h, hematocrit 2.5%) was 80 RLU and 88 RLU.
